From patent US5994334A, “Androgen synthesis inhibitors” (priority 1997, dated 1999)
Entries after “also recorded” stand apart in the source; their conditions may differ. Like-named read-outs stand apart in the source and are kept apart here.

Key:
[1] = molecular target: T1, Human Testicular 17α-Hydroxylase (Homo sapiens, UniProt P05093); experiment: Inhibition of human testicular 17α-hydroxylase (pregnenolone substrate, testicular microsomes); type: biochemical; conditions: for inhibition at 0.1 µM: read-out: % Inhibition 17α-hydroxylase, [I] = 100 nM; for inhibition at 0.4 µM: read-out: % Inhibition 17α-hydroxylase, [I] = 400 nM
T1 construct: incubating human testicular microsomes; from tissue; host or cells: human testis, microsomes
T1 sequence (P05093 1-508): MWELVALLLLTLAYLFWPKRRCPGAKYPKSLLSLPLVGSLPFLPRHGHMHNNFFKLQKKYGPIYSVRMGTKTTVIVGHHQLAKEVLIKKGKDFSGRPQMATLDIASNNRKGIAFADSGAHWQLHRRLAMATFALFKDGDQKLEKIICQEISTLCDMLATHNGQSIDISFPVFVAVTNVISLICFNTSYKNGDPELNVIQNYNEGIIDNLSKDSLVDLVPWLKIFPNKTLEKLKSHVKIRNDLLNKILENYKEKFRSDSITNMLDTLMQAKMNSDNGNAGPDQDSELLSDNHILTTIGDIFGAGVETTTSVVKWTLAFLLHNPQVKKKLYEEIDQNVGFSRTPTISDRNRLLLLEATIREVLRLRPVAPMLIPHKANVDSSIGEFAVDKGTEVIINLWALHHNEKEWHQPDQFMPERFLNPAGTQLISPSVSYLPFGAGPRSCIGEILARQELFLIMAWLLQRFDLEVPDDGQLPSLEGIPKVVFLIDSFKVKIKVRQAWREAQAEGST
Protocol: (§1) The conversion of radiolabeled pregnenolone to 17α-hydroxypregnenolone and DHEA by 17α-hydroxylase/C17,20 -lyase was measured by incubating human testicular microsomes with different concentration of test compounds. Reverse phase HPLC was used to separate and accurately quantify the amount of substrate and metabolites. The 17α-hydroxylase and C17,20 -lyase activities were calculated separately. The activity of 17α-hydroxylase was calculated from the conversion of pregnenolone to 17α-hydroxypregnenolone and DHEA and the activity of C17,20 -lyase was based on the conversion of pregnenolone to DHEA. Although 17α-hydroxypregnenolone is the substrate converted to DHEA by C17,20 -lyase, it has been reported that this 17α-hydroxy intermediate is not released from the enzyme binding site during conversion (Nakajin et al., 1981a,b). Also, there are species differences in substrate requirements. Pregnenolone is the natural substrate rather than progesterone for human testicular 17α-hydroxylase and C17,20 -lyase. Therefore, pregnenolone was used as substrate for measuring the activity of this enzyme complex.

[2] = molecular target: T2, Human Testicular C17,20-lyase (Homo sapiens, UniProt P05093); experiment: Inhibition of human testicular C17,20-lyase (pregnenolone substrate, testicular microsomes); type: biochemical; conditions: for inhibition at 0.1 µM: read-out: % Inhibition C17,20-lyase, [I] = 100 nM; for inhibition at 0.4 µM: read-out: % Inhibition C17,20-lyase, [I] = 400 nM
T2 construct: incubating human testicular microsomes; from tissue; host or cells: human testis, microsomes
T2 sequence (P05093 1-508): T1 sequence (P05093 1-508)
Protocol: as §1

[3] = molecular target: T3, human 17α-hydroxylase/C17,20-lyase (Homo sapiens, UniProt P05093); experiment: Inhibition of human testicular 17α-hydroxylase/C17,20-lyase (enzyme complex as a whole); type: biochemical; conditions: NI = no inhibition
T3 construct: incubating human testicular microsomes; from tissue; host or cells: human testis, microsomes
T3 sequence (P05093 1-508): T1 sequence (P05093 1-508)
Protocol: as §1

[4] = molecular target: T4, Human Prostatic 5α-Reductase (Homo sapiens, UniProt P31213); experiment: Inhibition of human prostatic 5α-reductase (prostatic microsomes, [3H]testosterone); conditions: for inhibition at 0.01 µM: read-out: % Inhibition of 5α-reductase, [I] 10 nM; for inhibition at 0.1 µM: read-out: % Inhibition of 5α-reductase, [I] 100 nM; for inhibition at 0.4 µM: read-out: % Inhibition of 5α-reductase, [I] 400 nM
T4 sequence (P31213 1-254): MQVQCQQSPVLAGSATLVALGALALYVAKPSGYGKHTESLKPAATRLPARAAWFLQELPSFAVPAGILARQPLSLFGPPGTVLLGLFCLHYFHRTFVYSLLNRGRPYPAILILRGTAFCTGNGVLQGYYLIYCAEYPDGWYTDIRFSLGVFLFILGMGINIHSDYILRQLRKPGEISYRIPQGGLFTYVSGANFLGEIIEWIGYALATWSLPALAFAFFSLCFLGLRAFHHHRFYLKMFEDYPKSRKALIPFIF

[5] = Table 1, NI = no inhibition, read-out: IC50 17α-OHase
[6] = first figure of pair, read-out: IC50 17α-hydroxylase
[7] = Table 1, NI = no inhibition, CI = complete inhibition, read-out: IC50 C17,20 lyase
[8] = second figure of pair, read-out: IC50 C17,20-lyase

C[C@]12CCC(=O)C=C1CC[C@@H]1[C@@H]2CC[C@@]2(C)[C@H]1CC[C@]2(O)c1c[nH]cn1 [Compound I-44]
IC50 [1, 5]: 1200 nM | IC50 [1, 6]: 1200 nM | IC50 [2, 7]: 1000 nM | IC50 [2, 8]: 1000 nM

CC(=NN(C)C)C1=CC[C@H]2[C@@H]3CC=C4C[C@@H](O)CC[C@]4(C)[C@H]3CC[C@]12C [Compound I-14]
inhibition of 17α-hydroxylase/C17,20-lyase (in words) [3]: devoid of inhibitory activity

C[C@H](O)C1=CC[C@H]2[C@@H]3CC=C4C[C@@H](O)CC[C@]4(C)[C@H]3CC[C@]12C [Compound L-9]
inhibition at 0.01 µM [4]: 33.2% | inhibition of 17α-hydroxylase/C17,20-lyase (in words) [3]: less active

CC(=NN)[C@H]1CC[C@H]2[C@@H]3CC=C4C[C@@H](O)CC[C@]4(C)[C@H]3CC[C@]12C [Compound I-12]
inhibition of 17α-hydroxylase/C17,20-lyase (in words) [3]: poor inhibition

C[C@]12CC[C@H]3[C@@H](CC=C4C[C@@H](O)CC[C@@]43C)[C@@H]1CC[C@@H]2c1c[nH]c(-c2ccccc2)n1 [Compound L-7]
inhibition at 0.1 µM ([1]; 100 nM, first figure of pair): 10.3% | inhibition at 0.4 µM ([1]; 400 nM, first figure of pair): 20.9% | inhibition at 0.1 µM ([2]; 100 nM, second figure of pair): 9.5% | inhibition at 0.4 µM ([2]; 400 nM, second figure of pair): 33.8%

Cc1nc([C@H]2CC[C@H]3[C@@H]4CC=C5C[C@@H](O)CC[C@]5(C)[C@H]4CC[C@]23C)c[nH]1 [Compound L-4]
inhibition at 0.1 µM [1]: 13.8% | inhibition at 0.4 µM [1]: 41.9% | IC50 ([3]; one value for 17α-hydroxylase/lyase, read-out: IC50 17α-hydroxylase/lyase (single entry)): 400 nM | inhibition at 0.1 µM [2]: 70.2% | inhibition at 0.4 µM [2]: 100%

C[C@]12CC[C@H]3[C@@H](CC[C@]45CC(=O)C=C[C@]34C5)[C@@H]1CCC2=O [Compound L-15, 5,19β-cycloandrost-1-ene-3,17-dione]
inhibition at 0.1 µM ([1]; 100 nM, first figure of pair): 7.25% | inhibition at 0.1 µM [4]: 23.3% | inhibition at 0.4 µM [4]: 60.9% | inhibition at 0.1 µM ([2]; 100 nM, second figure of pair): 28.8%

CN(C)N=C1CC[C@H]2[C@@H]3CC=C4C[C@@H](O)CC[C@]4(C)[C@H]3CC[C@]12C [Compound I-56]
IC50 [1, 5]: 4200 nM | IC50 [2, 7]: 2400 nM

CC(=O)O[C@H]1CC[C@@]2(C)C(=CC[C@@H]3[C@@H]2CC[C@]2(C)C(C(C)=O)=CC[C@@H]32)C1 [Compound I-37]
IC50 ([1]; read-out: IC50 17α-OHase): 1890 nM | inhibition of 17α-hydroxylase/C17,20-lyase (in words) [3]: less activity than the 3-hydroxy compound | IC50 ([2]; read-out: IC50 C17,20 lyase): 1710 nM

CC(=O)[C@@]12O[C@@H]1C[C@H]1[C@@H]3CCC4=CC(=O)CC[C@]4(C)[C@H]3CC[C@@]12C [Compound I-18]
IC50 [1, 5]: 480 nM | inhibition at 0.01 µM [4]: 15.1% | inhibition at 0.1 µM [4]: 76.2% | IC50 [2, 7]: 800 nM

CN(C=O)[C@H]1CC[C@H]2[C@@H]3CC=C4C[C@@H](O)CC[C@]4(C)[C@H]3CC[C@]12C [Compound I-39]
IC50 [1, 5]: 290 nM | IC50 [2, 7]: 280 nM

CO[C@@H]1[C@]23CC[C@@H]4[C@H](CC[C@]5(C)C(=O)CC[C@@H]45)[C@]12CCC(=O)[C@H]3C [Compound L-23, 4α-methyl-19-(S)-methoxy-5,19β-cycloandrost-3,17-dione]
inhibition at 0.1 µM [4]: 0% | inhibition at 0.4 µM [4]: 16.1%

C=C1CC2C3CCC(OC(C)=O)C3(C)CCC2C2(C)CCC(=O)CC12 [Compound L-14, 17β-Acetoxy-6-methylene-5α-androst-3-one]
inhibition at 0.1 µM [4]: 5.77% | inhibition at 0.4 µM [4]: 11.4%

CC(=O)O[C@H]1CC[C@@]2(C)C(=CC[C@@H]3[C@@H]2CC[C@]2(C)C(c4c[nH]cn4)=CC[C@@H]32)C1 [Compound L-12]
inhibition at 0.1 µM ([1]; 100 nM, first figure of pair): 62.4% | inhibition at 0.4 µM ([1]; 400 nM, first figure of pair): 89.3% | IC50 [1, 5]: 75 nM | IC50 ([1]; Table 3, first figure of 17α-hydroxylase/lyase pair, read-out: IC50 17α-hydroxylase): 74.6 nM | IC50 [1, 6]: 75 nM | inhibition of 17α-hydroxylase/C17,20-lyase (in words) [3]: lower potency than I-49; also recorded: weaker inhibitor than I-49 | inhibition at 0.1 µM ([2]; 100 nM, second figure of pair): 82.1% | inhibition at 0.4 µM ([2]; 400 nM, second figure of pair): 97% | IC50 [2, 7]: 25 nM | IC50 ([2]; Table 3, second figure of pair, CI = complete inhibition, read-out: IC50 lyase): 24.8 nM | IC50 [2, 8]: 25 nM
